Data on one compound can be found in patent EP1310250A1, “Use of the compound 2-methoxyphenyl-1-methyl-5P-methylbenzoyl-pyrrol-2-acetamido acetate for the production of an antiinflammatory drug with prevention of gastric hypersecretion and renal impairment” (MEDOSAN Ricerca S.r.l., priority 1997, dated 1999).

The test system of this experiment is osteoarthritis. Description: Clinical trials: antiphlogistic activity in osteoarthritis. The arrangement: key to Antiphlogistic activity evaluation: excellent ^++++; good ^+++; poor ^++. It is filed as in vivo, man. An excerpt: In this degenerative disease amtolmetin guacyl was compared with diclofenac, diflunisal, flurbiprofen, ibuprofen, ketoprofen, naproxen and tolmetin.

Take `COc1ccccc1OC(=O)CNC(=O)Cc1ccc(C(=O)c2ccc(C)cc2)n1C` [amtolmetin guacyl, 2-methoxyphenyl-1-methyl-5p-methylbenzoylpyrrol-2-acetamido acetate]: the “Evaluation of antiphlogistic activity” value (550 patients, mean 80 days, versus Diclofenac, Diflunisal, Flurbiprofen, Ibuprofen, Ketoprofen, Naproxen, Tolmetin) is “Amtolmetin guacyl was more rapid and more active in a statistically significant manner in osteoarthritis compared to the reference NSAIDs”. In addition, the Antiphlogistic activity evaluation result (Osteoarthritis) is “^++++”.
